According to patent US8952157B2, “Apoptosis-inducing agents for the treatment of cancer and immune and autoimmune diseases” (AbbVie Inc., priority 2008, dated 2015):

Target: GST-Bcl-2 (Homo sapiens (Human), UniProt P10415)
Experiment: Time Resolved-Fluorescence Resonance Energy Transfer (TR-FRET) Bcl-2 binding assay
Conditions: GST-Bcl-2 1 nM, F-Bak peptide probe 100 nM, Tb-anti-GST antibody 1 nM; Ki by Wang's equation
In short: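 Ki values derived from TR-FRET displacement of F-Bak peptide from GST-Bcl-2, detected with Tb-labelled anti-GST antibody (ex 340, em 520/495 nm). Compound dilution series started at 50 μM (2× starting concentration); room-temperature incubation 3 hours.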

GST-Bcl-2, sequence (P10415 whole entry): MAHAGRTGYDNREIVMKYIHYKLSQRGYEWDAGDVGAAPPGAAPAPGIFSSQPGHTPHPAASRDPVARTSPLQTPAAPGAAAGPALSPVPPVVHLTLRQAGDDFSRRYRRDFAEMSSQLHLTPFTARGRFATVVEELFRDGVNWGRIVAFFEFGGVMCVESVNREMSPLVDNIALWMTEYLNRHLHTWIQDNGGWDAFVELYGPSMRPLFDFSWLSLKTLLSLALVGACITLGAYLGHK

Going from `CC1(C)CCC(CN2CCN(c3ccc(C(=O)NS(=O)(=O)c4ccc(NCC5CCOCC5)c([N+](=O)[O-])c4)c(Oc4ccc5c(c4)CC(=O)N5)c3)CC2)=C(c2ccc(Cl)cc2)C1` [Example 267, 4-(4-{[2-(4-chlorophenyl)-4,4-dimethylcyclohex-1-en-1-yl]methyl}piperazin-1-yl)-N-({3-nitro-4-[(tetrahydro-2H-pyran-4-ylmethyl)amino]phenyl}sulfonyl)-2-[(2-oxo-2,3-dihydro-1H-indol-5-yl)oxy]benzamide] to `CC1(C)CCC(CN2CCN(c3ccc(C(=O)NS(=O)(=O)c4ccc(NCC5CCOCC5)c([N+](=O)[O-])c4)c(Oc4ccc(N)nc4)c3)CC2)=C(c2ccc(Cl)cc2)C1` [Example 272, 2-[(6-aminopyridin-3-yl)oxy]-4-(4-{[2-(4-chlorophenyl)-4,4-dimethylcyclohex-1-en-1-yl]methyl}piperazin-1-yl)-N-({3-nitro-4-[(tetrahydro-2H-pyran-4-ylmethyl)amino]phenyl}sulfonyl)benzamide], the Ki falls from 28.4 nM to 1.24 nM (23-fold).

Going from `CC1(C)CCC(CN2CCN(c3ccc(C(=O)NS(=O)(=O)c4ccc(NCC5CCOCC5)c([N+](=O)[O-])c4)c(Oc4ccc(NC(=O)OC(C)(C)C)nc4)c3)CC2)=C(c2ccc(Cl)cc2)C1` [Example 270, tert-butyl 5-(5-(4-{[2-(4-chlorophenyl)-4,4-dimethylcyclohex-1-en-1-yl]methyl}piperazin-1-yl)-2-{[({3-nitro-4-[(tetrahydro-2H-pyran-4-ylmethyl)amino]phenyl}sulfonyl)amino]carbonyl}phenoxy)pyridin-2-ylcarbamate] to `CC1(C)CCC(CN2CCN(c3ccc(C(=O)NS(=O)(=O)c4ccc(NCC5CCOCC5)c([N+](=O)[O-])c4)c(Oc4ccnc(NC(=O)OC(C)(C)C)c4)c3)CC2)=C(c2ccc(Cl)cc2)C1` [Example 280, tert-butyl 4-(5-(4-{[2-(4-chlorophenyl)-4,4-dimethylcyclohex-1-en-1-yl]methyl}piperazin-1-yl)-2-{[({3-nitro-4-[(tetrahydro-2H-pyran-4-ylmethyl)amino]phenyl}sulfonyl)amino]carbonyl}phenoxy)pyridin-2-ylcarbamate], the Ki falls from > 1200 nM to 7.55 nM. The second binds more tightly here.

Compared with `CC1(C)CCC(CN2CCN(c3ccc(C(=O)NS(=O)(=O)c4ccc(NC5CCN(C6CCOCC6)CC5)c([N+](=O)[O-])c4)c(Oc4ccnc(NC(=O)OC(C)(C)C)c4)c3)CC2)=C(c2ccc(Cl)cc2)C1` [Example 271, tert-butyl 4-(5-(4-{[2-(4-chlorophenyl)-4,4-dimethylcyclohex-1-en-1-yl]methyl}piperazin-1-yl)-2-{[({3-nitro-4-[(1-tetrahydro-2H-pyran-4-ylpiperidin-4-yl)amino]phenyl}sulfonyl)amino]carbonyl}phenoxy)pyridin-2-ylcarbamate], `CC1(C)CCC(CN2CCN(c3ccc(C(=O)NS(=O)(=O)c4ccc(NC5CCN(C6CCOCC6)CC5)c([N+](=O)[O-])c4)c(Oc4ccnc(N)c4)c3)CC2)=C(c2ccc(Cl)cc2)C1` [Example 273, 2-[(2-aminopyridin-4-yl)oxy]-4-(4-{[2-(4-chlorophenyl)-4,4-dimethylcyclohex-1-en-1-yl]methyl}piperazin-1-yl)-N-({3-nitro-4-[(1-tetrahydro-2H-pyran-4-ylpiperidin-4-yl)amino]phenyl}sulfonyl)benzamide] is 3.7-fold lower in Ki: 1.91 nM for the first, 0.516 nM for the second.

First: CC1(C)CCC(CN2CCN(c3ccc(C(=O)NS(=O)(=O)c4ccc(NCC5CCOCC5)c([N+](=O)[O-])c4)c(Oc4cncc(Br)c4)c3)CC2)=C(c2ccc(Cl)cc2)C1 [Example 274, 2-[(5-bromopyridin-3-yl)oxy]-4-(4-{[2-(4-chlorophenyl)-4,4-dimethylcyclohex-1-en-1-yl]methyl}piperazin-1-yl)-N-({3-nitro-4-[(tetrahydro-2H-pyran-4-ylmethyl)amino]phenyl}sulfonyl)benzamide]
Second: CC1(C)CCC(CN2CCN(c3ccc(C(=O)NS(=O)(=O)c4ccc(NCC5CCOCC5)c([N+](=O)[O-])c4)c(Oc4cncc(N)c4)c3)CC2)=C(c2ccc(Cl)cc2)C1 [Example 279, 2-[(5-aminopyridin-3-yl)oxy]-4-(4-{[2-(4-chlorophenyl)-4,4-dimethylcyclohex-1-en-1-yl]methyl}piperazin-1-yl)-N-({3-nitro-4-[(tetrahydro-2H-pyran-4-ylmethyl)amino]phenyl}sulfonyl)benzamide]
The Ki of the first is 1.8-fold lower: 0.936 nM for the first, 1.7 nM for the second.

First: CC1(C)CC(c2ccc(Cl)cc2)=C(CN2CCN(c3ccc(C(=O)NS(=O)(=O)c4ccc(NCC5CCOCC5)c([N+](=O)[O-])c4)c(Oc4cc5cc[nH]c5cc4Cl)c3)CC2)CO1 [Example 275, 2-[(6-chloro-1H-indol-5-yl)oxy]-4-(4-{[4-(4-chlorophenyl)-6,6-dimethyl-5,6-dihydro-2H-pyran-3-yl]methyl}piperazin-1-yl)-N-({3-nitro-4-[(tetrahydro-2H-pyran-4-ylmethyl)amino]phenyl}sulfonyl)benzamide]
Second: CC1(C)CC(c2ccc(Cl)cc2)=C(CN2CCN(c3ccc(C(=O)NS(=O)(=O)c4ccc(NCC5CCOCC5)c([N+](=O)[O-])c4)c(Oc4cc5cc[nH]c5cc4F)c3)CC2)CO1 [Example 277, 4-(4-{[4-(4-chlorophenyl)-6,6-dimethyl-5,6-dihydro-2H-pyran-3-yl]methyl}piperazin-1-yl)-2-[(6-fluoro-1H-indol-5-yl)oxy]-N-({3-nitro-4-[(tetrahydro-2H-pyran-4-ylmethyl)amino]phenyl}sulfonyl)benzamide]
The Ki of the first is 4.8-fold higher: 0.081 nM for the first, 0.017 nM for the second.

Compared with `CC1(C)CCC(CN2CCN(c3ccc(C(=O)NS(=O)(=O)c4ccc(NCC5CCOCC5)c([N+](=O)[O-])c4)c(Oc4cc5cc[nH]c5cc4Cl)c3)CC2)=C(c2ccc(Cl)cc2)C1` [Example 276, 2-[(6-chloro-1H-indol-5-yl)oxy]-4-(4-{[2-(4-chlorophenyl)-4,4-dimethylcyclohex-1-en-1-yl]methyl}piperazin-1-yl)-N-({3-nitro-4-[(tetrahydro-2H-pyran-4-ylmethyl)amino]phenyl}sulfonyl)benzamide], `CC1(C)CCC(CN2CCN(c3ccc(C(=O)NS(=O)(=O)c4ccc(NCC5CCOCC5)c([N+](=O)[O-])c4)c(Oc4ccnc(N)c4)c3)CC2)=C(c2ccc(Cl)cc2)C1` [Example 282, 2-[(2-aminopyridin-4-yl)oxy]-4-(4-{[2-(4-chlorophenyl)-4,4-dimethylcyclohex-1-en-1-yl]methyl}piperazin-1-yl)-N-({3-nitro-4-[(tetrahydro-2H-pyran-4-ylmethyl)amino]phenyl}sulfonyl)benzamide] is 5.1-fold higher in Ki: 0.199 nM for the first, 1.01 nM for the second.

Going from `CC1(C)CCC(CN2CCN(c3ccc(C(=O)NS(=O)(=O)c4ccc(NCC5CCOCC5)c([N+](=O)[O-])c4)c(Oc4cncc(NC(=O)OC(C)(C)C)c4)c3)CC2)=C(c2ccc(Cl)cc2)C1` [Example 278, tert-butyl 5-(5-(4-{[2-(4-chlorophenyl)-4,4-dimethylcyclohex-1-en-1-yl]methyl}piperazin-1-yl)-2-{[({3-nitro-4-[(tetrahydro-2H-pyran-4-ylmethyl)amino]phenyl}sulfonyl)amino]carbonyl}phenoxy)pyridin-3-ylcarbamate] to `CC1(C)CCC(CN2CCN(c3ccc(C(=O)NS(=O)(=O)c4ccc(NCC5CCOCC5)c([N+](=O)[O-])c4)c(Oc4ccc(O)nc4)c3)CC2)=C(c2ccc(Cl)cc2)C1` [Example 283, 4-(4-{[2-(4-chlorophenyl)-4,4-dimethylcyclohex-1-en-1-yl]methyl}piperazin-1-yl)-2-[(6-hydroxypyridin-3-yl)oxy]-N-({3-nitro-4-[(tetrahydro-2H-pyran-4-ylmethyl)amino]phenyl}sulfonyl)benzamide], the Ki falls from 40 nM to 17.2 nM (2.3-fold). The second binds more tightly here.

Going from `CC1(C)CCC(CN2CCN(c3ccc(C(=O)NS(=O)(=O)c4ccc(NC5CCN(C6CCOCC6)CC5)c([N+](=O)[O-])c4)c(Oc4ccc5[nH]cc(Cl)c5c4)c3)CC2)=C(c2ccc(Cl)cc2)C1` [Example 281, 2-[(3-chloro-1H-indol-5-yl)oxy]-4-(4-{[2-(4-chlorophenyl)-4,4-dimethylcyclohex-1-en-1-yl]methyl}piperazin-1-yl)-N-({3-nitro-4-[(1-tetrahydro-2H-pyran-4-ylpiperidin-4-yl)amino]phenyl}sulfonyl)benzamide] to `CN1CCC(Nc2ccc(S(=O)(=O)NC(=O)c3ccc(N4CCN(CC5=C(c6ccc(Cl)cc6)CC(C)(C)CC5)CC4)cc3Oc3cccc4c3CC(=O)N4)cc2[N+](=O)[O-])CC1` [Example 288, 4-(4-{[2-(4-chlorophenyl)-4,4-dimethylcyclohex-1-en-1-yl]methyl}piperazin-1-yl)-N-({4-[(1-methylpiperidin-4-yl)amino]-3-nitrophenyl}sulfonyl)-2-[(2-oxo-2,3-dihydro-1H-indol-4-yl)oxy]benzamide], the Ki falls from 0.111 nM to 0.017 nM (6.5-fold). The second binds more tightly here.

First: CC1(C)CCC(CN2CCN(c3ccc(C(=O)NS(=O)(=O)c4ccc(NCC5CCOCC5)c([N+](=O)[O-])c4)c(Oc4ccc(OCc5ccccc5)nc4)c3)CC2)=C(c2ccc(Cl)cc2)C1 [Example 284, 2-{[6-(benzyloxy)pyridin-3-yl]oxy}-4-(4-{[2-(4-chlorophenyl)-4,4-dimethylcyclohex-1-en-1-yl]methyl}piperazin-1-yl)-N-({3-nitro-4-[(tetrahydro-2H-pyran-4-ylmethyl)amino]phenyl}sulfonyl)benzamide]
Second: CC1(C)CCC(CN2CCN(c3ccc(C(=O)NS(=O)(=O)c4ccc(OCC5COCCO5)c([N+](=O)[O-])c4)c(Oc4cc5cc[nH]c5cc4F)c3)CC2)=C(c2ccc(Cl)cc2)C1 (stereo not shown) [Example 285, 4-(4-{[2-(4-chlorophenyl)-4,4-dimethylcyclohex-1-en-1-yl]methyl}piperazin-1-yl)-N-{[4-(1,4-dioxan-2-ylmethoxy)-3-nitrophenyl]sulfonyl}-2-[(6-fluoro-1H-indol-5-yl)oxy]benzamide]
The Ki of the first is 2100-fold higher: 79.3 nM for the first, 0.037 nM for the second.

Work on `CN1CCN(Nc2ccc(S(=O)(=O)NC(=O)c3ccc(N4CCN(CC5=C(c6ccc(Cl)cc6)CC(C)(C)CC5)CC4)cc3Oc3cccc4c3CC(=O)N4)cc2[N+](=O)[O-])CC1` [Example 287, 4-(4-{[2-(4-chlorophenyl)-4,4-dimethylcyclohex-1-en-1-yl]methyl}piperazin-1-yl)-N-({4-[(4-methylpiperazin-1-yl)amino]-3-nitrophenyl}sulfonyl)-2-[(2-oxo-2,3-dihydro-1H-indol-4-yl)oxy]benzamide] yielded a Ki of 0.131 nM.
